Key:
Format in all cases: cell-based
HIV-1LAI S117T = test: p24 reduction assay in MT-2 cells, S117T; details: Example 6, recombinant virus encoding S117T
Method: (§1) Cells. MT-2 cells (AIDS Research and Reference Reagent Program, National Institute of Allergy and Infectious Diseases, National Institutes of Health) were maintained in RPMI 1640 supplemented with 10% fetal bovine serum (FBS; JRH Biosciences, Lenexa, Kans.), 10 mM HEPES buffer, 50 IU/ml penicillin and 50 μg/ml streptomycin.
(§2) Antiviral Susceptibility Assays. The antiviral activity of each compound was determined by inoculating MT-2 cells with HIV-1LAI at a multiplicity of infection (MOI) of 0.01 TCID50/cell, followed by incubation in the presence of three-fold serial drug dilutions (3 wells per dilution) (see Mellors, et. al., Antimicrob. Agents Chemother. 39:1087-1092). Five or seven days after infection, culture supernatants were harvested, lysed with 0.5% triton-X 100 and assayed for p24 antigen concentration using a commercial ELISA assay (DuPont, NEN Products, Wilmington, Del.). The antiviral activity of the compounds is expressed as the IC50, which is the concentration required to inhibit 50% of p24 antigen production. The fold-resistance of a test virus is calculated by dividing the IC50 of the test virus by the IC50 of the HIV-1LAI control virus.
(§3) Generation of Mutant Recombinant HIV-1. HIV-1 containing the desired mutations were generated by oligonucleotide directed mutagenesis (Altered Sites II, Promega) as previously described (Mellors, et. al., Molecular Pharm. 41:446-451). After mutagenesis, mutant RT was subcloned into the pxxHIV-1LAI cloning vector using the silent XmaI and XbaI restriction sites located at the 5′ and 3′ ends of RT. Clones were DNA sequenced to verify the presence of the desired mutation(s) and electroporated into MT-2 cells as described above to generate infectious mutant recombinant HIV-1.
Mutant RT was generated via oligonucleotide-directed mutagenesis and ligated into the pXXHIV-1LAI cloning vector. Cloning was facilitated by the presence of two silent restriction sites at the 5′ and 3′ ends (Xma1 and Xba1, respectively) of pXXHIV-1LAI RT. Infectious mutant recombinant HIV-1 was generated by electroporating MT-2 cells with mutated pXXHIV-1LAI clones. The presence of the desired mutations was verified by DNA sequencing.
DNA sequencing identified two mutations in RT: S117T and L214F.
(§4) Recombinant viruses containing the mutations selected by invention compounds were also evaluated for their susceptibility to AZT, as shown in Table 8.

HIV-1LAI S117T/L214F = test: p24 reduction assay in MT-2 cells, S117T/L214F; details: Example 6; recombinant virus encoding S117T plus L214F
Method: as §1, §2, §3
Mutant RT was generated via oligonucleotide-directed mutagenesis and ligated into the pXXHIV-1LAI cloning vector. […]
as §4

[1] = system: HIV-1LAI (wild type, control); test: p24 reduction assay in MT-2 cells, wild type virus; details: Table 6; baseline virus HIV-1LAI passage 0; read-out: EC50
Method: as §1
Viruses. Stock virus was prepared by electroporating (BIO-RAD Gene Pulser®, Hercules, Calif.) MT-2 cells (1.3×10^7 cells) with 5-10 μg of plasmid DNA encoding a proviral clone of HIV-1LAI (see Nguyen, et. al., Antimicrob. Agents Chemother. 38:2409-2414, and Peden, et. al., Virology 185: 661-672.). At peak cytopathic effect (generally 5-7 days post-transfection), culture supernatants were harvested and stored at −80° C. Viral infectivity titers were determined in threefold endpoint dilution assays conducted in MT-2 cells (six wells per dilution). The 50% tissue culture infective dose (TCID50) was calculated using the Reed and Muench equation (see Reed, et. al., Am. J. Hyg. 27:493-496).
as §2, with “[…],” for “was determined by inoculating MT-2 cells with HIV-1LAI at a multiplicity of infection (MOI) of 0.01 TCID50/cell,”
Cultures of MT-2 cells infected with either wild type (xxLAI) or with the drug-resistant strains of HIV-1 listed above were treated with lipid analogs of PFA (B-PFA, MB-PFA, or EB-PFA). The μM concentration required to produce 50% inhibition of replication of the drug-resistant strain of HIV (EC50) was determined as shown in Table 1. Drug effects were measured by assaying p24 (a viral protein) in the culture medium.

[2] = system: HIV-1LAI selected with DB-PFA, passage 18 (S117T, L214F); test: Susceptibility of virus selected in vitro with DB-PFA
Method: as §2
Selection of Resistant Viruses. […] Viral cytopathic effects (CPE) were monitored daily. […] The passaged virus was monitored regularly for a reduction in susceptibility to the compounds by determining the EC50 relative to unpassaged HIV-1LAI (Mellors, et. al., Antimicrob. Agents Chemother. 39:1087-1092). […]

## 1-O-octadecyl-propanediol-3-PFA [DB-PFA]
HIV-1LAI S117T
  Fold resistance: 10.0 fold
HIV-1LAI S117T; read-out: EC50
  EC50: 9 µM
HIV-1LAI S117T/L214F
  Fold resistance: 9.7 fold
[1]
  EC50: 0.83 µM
[2]; Table 6, passage 18 (S117T, L214F)
  EC50: 8.97 µM
[2]; Table 6, passage 18, relative to passage 0
  Fold resist.: 10.8
